Results on three compounds are retold here after patent US8877940B2, “Antibiotic tolerance inhibitors” (Institut National de la Recherche Scientifique, priority 2011, dated 2014).

“Also recorded” adds a separate entry of the source.

For series [1], the system named is P. aeruginosa PA14. Kind of series: Murine burn and infection model, M64 plus ciprofloxacin. Format: in vivo, DC-1 mice. Particulars: IV at 6, 20, 28, 40, 60, 68 and 80 h; M64 100 μM (4 mg/Kg), ciprofloxacin 0.4 mg/Kg; 7 days; un-injected controls 30%.
From the text: A murine thermal injury model (Stevens et al., J Burn Care Rehabil. 1994; 15:232-235) was used as previously described to further assess bacterial pathogenicity in 6-wk-old DC-1 mice (Rahme et al., Science, 268(5219): p. 1899-902 (1995)) in the presence of combination of Ciprofloxacin (Bayer AG) and M64. Following mouse anesthetization, a full-thickness thermal burn injury involving 5%-8% of the body surface area was produced on the dermis of the shaved abdomen, and an inoculum of about 6-7×10^3 PA14 cells was injected intradermally into the burn eschar along with DMSO or 100 μM M64 compound. 100 μM (4 mg/Kg) of M64, 0.4 mg/Kg of ciprofloxacin (lower than the recommended dose of 10 mg/Kg), or a combination of M64+ciproflocaxin was also injected IV via tail vein at 6, 20, 28, 40, 60, 68 h and 80 h post-infection. Mice survival was subsequently assessed over the course of 7 days. Ten animals per treatment were used. In this set of experiments the concentration of ciprofloxacin used was lower than the therapeutic levels recommended to permit assessment of the possible synergistic effect between M64 and ciprofloxacin.
Series [2] concerns 4-hydroxy-2-alkylquinoline (HAQ) levels, P. aeruginosa PA14 (MvfR regulon). The class given is cell-based, Pseudomonas aeruginosa. The note with it: for reduction / inhibition of HAQs: very low concentrations, nanomolar range.
Series [3] relates to pyocyanin, an MvfR-regulated virulence factor, P. aeruginosa PA14. Description: Quantification of pyocyanin (OD520nm of chloroform-extracted cultures). The class given is cell-based, Pseudomonas aeruginosa. Particulars: very low concentrations, nanomolar range. How it is done:
Pyocyanin levels were determined by measuring OD520nm of chloroform-extracted cultures.
Compounds were tested at various concentrations for their impact on 4-hydroxy-2-alkylquinoline (HAQ) levels, including the MvfR ligands 4-hydroxy-2-heptylquinoline (HHQ) and 3,4-dihydroxy-2-heptylquinoline (PQS), as well as 2-n-heptyl-4-hydroxyquinoline-N-oxide (HQNO) and 2,4-dihydroxyquinoline (DHQ) (FIGS. 2A-2C). Levels of the phenazine, pyocyanin, an MvfR-regulated virulence factor, were also determined.

Series [4] concerns Raw264.7 macrophage cells infected with PA14. Description: Viability of PA14-infected macrophage cells (MTT assay). The class given is cell-based. Particulars: for reduction of PA14-induced cytotoxicity: PA14 MOI 100, 3 h, 100 μM compound. Here is the method:
Raw264.7 macrophage cells were cultured in Dulbecco's modified eagles medium (DMEM) containing 10% FCS, 2 mM glutamine and antibiotic-antimycotic solutions. Before infections cells were washed with PBS (without Mg2+ and Ca2+) and antibiotic-free medium was used for infections. The cells were infected with PA14 and PA14 isolates grown in the presence of compounds at an MOI of 100 for 3 h at 37° C. in a 5% CO2 atmosphere. During infections cells were incubated with 100 μM of compounds as well. After 3 hours of PA14 infection, the cells were washed and incubated with DMEM medium containing polymixin B and gentamicin in order to kill the extracellular bacteria. The viability of Raw264.7 was assessed using the MTT assay, which detects the early sign of eukaryotic cell death. The formazan crystals formed in viable, metabolically active cells were dissolved by the addition of 100 μl DMSO and optical density was measured at 570 nm in a microplate reader.
In order to determine whether or not the potent inhibitors are cytotoxic in eukaryotes, Raw 264.7 macrophage cells were exposed to selected compounds. No significant cytotoxicity was observed following compound exposure for 3 hours compared to the DMSO solvent control (FIG. 6A). The cytotoxicity of the macrophage cells was also determined when infected with PA14 bacterial cells alone or in the presence of the compounds.
In general terms: Formazan colour is commonly taken as a measure of viable cells.

Series [5] addresses MvfR binding to pqsA promoter (Pseudomonas aeruginosa, UniProt Q9I4X0).
The subject of series [6] is P. aeruginosa PA14. Kind of series: Murine burn and infection model. The note with it: ~100 μM compound/mouse at infection and IV at 6 and 24 h; solvent control 38%.
Method: A thermal injury mouse model was used as described previously to assess bacterial pathogenicity in 6 week old BALBC mice (Charles River Laboratories). Following mouse anesthetization, a full-thickness thermal burn injury involving 5%-8% of the body surface area was produced on the dermis of the shaved abdomen. An inoculum of 4×10^4 PA14 cells, corresponding to a lethal dose of 50%, was injected intradermally into the burn eschar along with the compound or solvent, prepared as follows: 5 μl of a 50 mM stock in DMSO of compound was added to a solution of 5% CremophorEL/Ethanol (50/50% vol) in 50 μl saline. […] Each mouse also received IV injections of 50 μl of compound or solvent, as prepared above at 6 hours and 24 hours post-infection.
A murine thermal injury and infection model was used to assess the impact of the compounds on P. aeruginosa pathogenesis in animals. Due to the hydrophobic nature of the compounds, 5% CremophorEL/Ethanol (50/50% vol) was used as an emulsifier to dissolve the compound in saline prior to injecting into animals. […] The bacteria and either 100 μM compound/mouse or DMSO control were co-injected at the time of infection. Compounds were also injected 6 hours and 24 hours post-infection.
Series [7] has as its system ΔmvfR mutant constitutively expressing the pqsABCD genes. Kind of series: HAQ production in ΔmvfR mutant constitutively expressing pqsABCD (LC/MS). Format: cell-based, Pseudomonas aeruginosa. Particulars: 100 μM inhibitor. From the text: However, since these compounds diminish or abolish P. aeruginosa HAQ production, it is possible that they target either the MvfR protein itself or enzymes in the pqs operon that are required for HAQ synthesis. To further understand the target(s) of these compounds, a ΔmvfR mutant constitutively expressing the pqsABCD genes was used. This strain is capable of synthesizing HHQ, HQNO, PQS and DHQ independently of MvfR. […] Since PqsA and PqsD are necessary and sufficient for DHQ production, it is possible that these inhibitors target either PqsB or PqsC enzymes, which are required for HHQ and PQS production.

Sequence of MvfR binding to pqsA promoter (Q9I4X0 whole entry, looked up): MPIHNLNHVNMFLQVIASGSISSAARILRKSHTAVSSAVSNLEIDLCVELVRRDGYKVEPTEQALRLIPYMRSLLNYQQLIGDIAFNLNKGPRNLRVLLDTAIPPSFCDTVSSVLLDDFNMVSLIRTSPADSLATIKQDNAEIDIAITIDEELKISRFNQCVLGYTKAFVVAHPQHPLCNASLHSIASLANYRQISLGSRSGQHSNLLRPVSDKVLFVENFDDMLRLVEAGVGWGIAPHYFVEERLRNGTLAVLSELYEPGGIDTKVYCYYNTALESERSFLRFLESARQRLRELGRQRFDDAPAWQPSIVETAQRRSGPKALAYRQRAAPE

As to `O=C(O)c1cn(C2CC2)c2cc(N3CCNCC3)c(F)cc2c1=O` [ciprofloxacin, reference compound], the survival rate in series [1] is 80%.
With `O=C(CSc1nc2ccc([N+](=O)[O-])cc2[nH]1)Nc1ccc(Oc2ccccc2)cc1` [Compound M64, 2-((6-nitro-1H-benzo[d]imidazol-2-yl)thio)-N-(4-phenoxyphenyl)acetamide], the “reduction / inhibition of HAQs” value in series [2] is recorded as “one of the most effective; also recorded: considerably inhibited”. The “reduction / inhibition of pyocyanin” value in series [3] is listed as “one of the most effective; also recorded: considerably inhibited”. Also, the viability at 100 µM in series [4] (Mus musculus, RAW264.7, 3 h, read-out: viable macrophage cells surviving post-infection) is 80%. The “reduction of PA14-induced cytotoxicity” value in series [4] is reported as “effectively reduced cytotoxicity”. Besides, in series [1], the survival rate was determined as 75%. The “effect on MvfR binding to pqsA promoter (ChIP fold enrichment)” value in series [5] is on record as “affects MvfR binding to pqsA promoter by competing with the MvfR ligand PQS”. Moreover, the overall surviving mice in series [6] was 84%.
Take `O=C(CSc1nc2ccc([N+](=O)[O-])cc2[nH]1)Nc1ccc(Br)cc1` [Compound M50, N-(4-bromophenyl)-2-((6-nitro-1H-benzo[d]imidazol-2-yl)thio)acetamide]: in series [2] (tested at 10 μM), the “activity (impacts on HAQ and pyocyanin levels), structure-activity comparison” value is given as “most active”. Further, the “reduction / inhibition of HAQs” value in series [2] is given as “considerably inhibited”. Besides, in series [3], the “reduction / inhibition of pyocyanin” value is “considerably inhibited”. Moreover, the “HAQ levels compared to the solvent control” value in series [7] was “do not significantly alter HAQ levels”. For the same compound, the “reduction of PA14-induced cytotoxicity” value in series [4] is “effectively reduced cytotoxicity”.
